“And” between values parts separate entries of the source, which are not always exact repeats. Equal entries are not always repeated. Where two headings read alike, the source gives them in different places.
Legend:
[1] = tested on: L. mexicana NT1-KO promastigotes; assay: Resazurin (Alamar blue) drug sensitivity assay, NT1-KO line; assay type: cell-based, Leishmania mexicana
Method: The assay is based on the reduction of the dye resazurin (Alamar blue) by live but not dead cells and was performed with various strains of Leishmania mexicana promastigotes, exactly as described. Briefly, doubling dilutions starting at 100 µM were set up over 2 rows of a 96-well plate and 2 × 10^5 cells were added to each well, followed by incubation at 25 °C. After 72 h, 20 µL of 125 µg/mL resazurin solution was added and the plates incubated for a further 24 h. Fluorescence was determined in a FLUOstar OPTIMA plate reader (BMG Labtech, Ortenberg, Germany), reading the fluorescence intensity in arbitrary units (A.U.) at 544 nm wavelength for excitation and 620 nm wavelength for emission. The EC50 values and fluorescence data were determined and plotted to a sigmoid curve with variable slope, using the GraphPad Prism 8 software package. All EC50 values were determined on at least three independent occasions and are presented as average ± SEM.

L. mexicana cas9 cells [2] = assay: Growth curve of cas9 cells with selection agents; assay type: cell-based, Leishmania mexicana; details: 5 μM tubercidin, 5 μg/mL blasticidin, 20 µg/mL puromycin, 1 µM formycin B
Method: The growth rates of the L. mexicana promastigotes were determined in the standard HOMEM medium supplemented with 10% FBS, in 12-well plates, in triplicate. After every 24 h, cells were counted in a sample of the culture, using either a Neubauer hemocytometer chamber (Hawksley, Birmingham, UK) or by a coulter particle counter and size analyzer (Beckman, Brea, CA, USA) to count the cells in triplicate. An average of the triplicate readings was taken and plotted using GraphPad Prism 8 software to obtain the growth curves.

[3] = tested on: L. mexicana NT3-KO promastigotes; assay: Radiolabel transport assay in NT3-KO cells; assay type: cell-based, Leishmania mexicana; details: for rate of uptake: NT3-KO cells; for upregulation of uptake rate in NT3-KO relative to cas9: adenosine and inosine at 100 nM, separate experiments listed singly
Method: (§1) Transport assays were performed exactly as described previously. Briefly, 10^7 cells in 100 μL of assay buffer (AB) were mixed with an equal volume of radiolabel at 2× concentration for a preset time. The incubation was terminated by the addition of 700 μL of “Stop solution”, being ice-cold 1 mM solution of unlabelled permeant, followed by immediate centrifugation through an oil layer in a microfuge at 13,000 rpm. This causes the cell pellet to reside under the oil layer and isolated from residual radiolabel in the assay buffer. The tubes were flash-frozen in liquid nitrogen and the bottom tip, containing the cell pellet, cut off and collected in a scintillation tube. Cells were solubilized by gentle shaking after addition of a 2% SDS solution, before the addition of scintillation fluid (Scintilogic U, Lablogic, Sheffield, UK); the tubes were left to stand in the dark overnight before counting in a 300SL Hidex Scintillation Counter (Lablogic). Linear and nonlinear regression analyses were carried out using GraphPad Prism versions 8.0 and higher. […] However, all parameters, including Km, Vmax, Ki, given are the average of at least three separate, independent determinations; errors given are standard errors, unless otherwise specified.

TcrNB2 [4] = molecular target: T1, TcrNB2 (Trypanosoma cruzi, UniProt Q4DHG0); assay: Transport assay, TcrNB2 expressed in LmexNT3-KO; assay type: cell-based
T1 sequence (Q4DHG0 1-440): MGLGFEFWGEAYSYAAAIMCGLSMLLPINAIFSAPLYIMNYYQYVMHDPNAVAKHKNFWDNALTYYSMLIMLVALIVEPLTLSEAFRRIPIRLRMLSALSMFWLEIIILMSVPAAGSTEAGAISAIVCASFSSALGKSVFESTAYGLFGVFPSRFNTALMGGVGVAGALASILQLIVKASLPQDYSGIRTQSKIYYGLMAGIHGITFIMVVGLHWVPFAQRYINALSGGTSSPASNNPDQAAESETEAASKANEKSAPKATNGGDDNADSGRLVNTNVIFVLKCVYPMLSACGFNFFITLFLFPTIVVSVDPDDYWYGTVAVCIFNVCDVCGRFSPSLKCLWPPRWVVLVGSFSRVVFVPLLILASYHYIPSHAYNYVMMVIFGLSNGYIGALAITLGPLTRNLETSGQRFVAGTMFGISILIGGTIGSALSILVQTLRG
Method: as §1

TcrNB2 [5] = molecular target: T1, TcrNB2; assay: Transport assay, TcrNB2 expressed in NT1-KO; assay type: cell-based; details: 50 nM [^3H]-adenosine, 100 nM [^3H]-hypoxanthine, 100 nM [^3H]-uracil; data not shown
Method: as §1

L. mexicana NT2-KO cells = assay: Radiolabel transport assay in NT2-KO cells; assay type: cell-based, Leishmania mexicana; details: for inhibition of residual [^3H]-guanosine uptake in NT2-KO: 250 µM inhibitor, 100 nM [^3H]-guanosine
Method: as §1

[6] = tested on: L. mexicana SUPKO (ΔNT1.1/1.2/2) cells; assay: Radiolabel transport assay in SUPKO cells; assay type: cell-based, Leishmania mexicana; details: for rate of uptake: SUPKO cells; for uptake reduced in SUPKO compared to cas9: 100 nM (0.1 µM) radiolabel
Method: as §1

TvagENT3 [7] = molecular target: T2, TvagENT3 (Trichomonas vaginalis, UniProt A2E5Q3); assay: cell-based
T2 sequence (A2E5Q3 entry or part of it): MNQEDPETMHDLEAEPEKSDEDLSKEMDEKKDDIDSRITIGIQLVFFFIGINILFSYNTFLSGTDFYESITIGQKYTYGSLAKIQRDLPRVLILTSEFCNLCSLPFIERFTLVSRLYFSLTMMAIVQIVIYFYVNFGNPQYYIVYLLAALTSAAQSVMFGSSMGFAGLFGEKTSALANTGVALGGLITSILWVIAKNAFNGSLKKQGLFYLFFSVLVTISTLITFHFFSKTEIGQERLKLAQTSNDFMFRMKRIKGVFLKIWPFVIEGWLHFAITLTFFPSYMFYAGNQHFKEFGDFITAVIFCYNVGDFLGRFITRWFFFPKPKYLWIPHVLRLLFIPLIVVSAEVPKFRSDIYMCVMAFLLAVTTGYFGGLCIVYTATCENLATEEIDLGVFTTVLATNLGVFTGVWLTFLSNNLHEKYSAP
Method: as §1

LmexNT1.2 = assay: Transport assay, LmexNT1.2 expressed in SUPKO; assay type: cell-based, Leishmania mexicana
Method: as §1

LmexNT1.1 = assay: Transport assay, LmexNT1.1 expressed in SUPKO; assay type: cell-based, Leishmania mexicana; details: SUPKO expressing LmexNT1.1, 50 nM radiolabel
Method: as §1

L. major U1 transporter = molecular target: L. major U1 transporter; parameters: method as in PMID 15796010; details: unit printed only with the uridine value; cited from earlier work
L. mexicana cas9 cells [8] = assay: Radiolabel transport assay in cas9 cells; assay type: cell-based, Leishmania mexicana; details: cas9 cells
Method: as §1

TvagENT3 [9] = molecular target: T2, TvagENT3; details: TvagENT3 expressed in T. brucei; cited from earlier work
[10] = substrate: Nc1ncnc2nc[nH]c12; assay: Transport assay, TcrNB2 expressed in LmexNT3-KO; assay type: cell-based, Trypanosoma cruzi
Method: as §1

[11] = 100 nM radiolabel, listed as [^3H]-guanosine

With `Nc1ncnc2c1ccn2[C@@H]1O[C@H](CO)[C@@H](O)[C@H]1O` [tubercidin] the “shift in tubercidin sensitivity” value ([1]; NT1-KO vs cas9, resazurin assay) was 60 fold and the “sensitivity of cas9 cells in growth curve” value (“sensitivity of cas9 cells” for short) (L. mexicana cas9 cells [2]) was “confirmed”.

For `COc1ccc(C[C@H](N)C(=O)N[C@H]2[C@@H](O)[C@H](n3cnc4c(N(C)C)ncnc43)O[C@@H]2CO)cc1` [puromycin], the “sensitivity of cas9 cells” value (L. mexicana cas9 cells [2]) was “confirmed”.

In the case of `O=c1[nH]cnc2nc[nH]c12` [hypoxanthine], the “uptake detected in NT3-KO cells” value ([3]; 100 nM radiolabel, p = 0.72) is reported as “no significant hypoxanthine uptake was detected”, the rate of uptake ([3]; 100 nM radiolabel) is reported as 0.00019 ± 0.00045 pmol(10^7 cells)^−1s^−1 and the inhibition at 1000 µM (TcrNB2 [4]; 1 mM inhibitor, TcrNB2 in NT3-KO, read-out: inhibition of adenine uptake) is reported as 31.1 ± 4.3%. For the same molecule, the “effect of TcrNB2 expression on uptake in NT1-KO cells” value (TcrNB2 [5]) was “did not increase”, the “inhibition of residual [^3H]-guanosine uptake in NT2-KO” value (L. mexicana NT2-KO cells) was “completely inhibited” and the rate of uptake ([6]; 100 nM radiolabel) was 0.045 ± 0.004 pmol(10^7 cells)^−1s^−1.

With `Nc1ccn([C@@H]2O[C@H](CO)[C@@H](O)[C@H]2O)c(=O)n1` [cytidine] the “upregulation of uptake rate in NT3-KO relative to cas9” value ([3]; listed as [^3H]-cytidine) was 3.0 fold and 3.7 fold, the rate of uptake (TvagENT3 [7]; SUPKO expressing TvagENT3, 500 nM radiolabel) was 1.8 × 10^−4 ± 1.3 × 10^−5 pmol(10^7 cells)^−1s^−1 and the rate of uptake ([6]; 500 nM radiolabel) was 1.5 × 10^−5 ± 9 × 10^−6 pmol(10^7 cells)^−1s^−1.

In the case of `O=c1ccn([C@@H]2O[C@H](CO)[C@@H](O)[C@H]2O)c(=O)[nH]1` [uridine], the rate of uptake (LmexNT1.2; SUPKO expressing LmexNT1.2, 50 nM radiolabel) is reported as 0.0076 ± 0.0009 pmol(10^7 cells)^−1s^−1, the “uptake faster by cells expressing NT1.2 than NT1.1” value (LmexNT1.2; SUPKO transfectants, p = 0.0004) is reported as 6.3 fold and the rate of uptake (LmexNT1.1) is reported as 0.0012 ± 0.0001 pmol(10^7 cells)^−1s^−1. The Ki (L. major U1 transporter) was 10.9 ± 3.2 µM, the rate of uptake (L. mexicana cas9 cells [8]; 100 nM radiolabel) was 0.10 ± 0.003 pmol(10^7 cells)^−1s^−1 and the “uptake reduced in SUPKO compared to cas9” value ([6]; listed as [^3H]-uridine) was 88.3% and 98.6% and 97.5%. The rate of uptake ([6]; 50 nM radiolabel) was “not significantly different from zero” and the rate of uptake ([6]; 100 nM radiolabel) was 0.0014 ± 0.00009 pmol(10^7 cells)^−1s^−1.

In the case of `N=C(N)c1ccc(OCCCCCOc2ccc(C(=N)N)cc2)cc1` [pentamidine], the “EC50 (internal control)” value ([1]; NT1-KO compared with cas9) is reported as “unchanged”.

In the case of `O=c1[nH]cnc2c1ncn2[C@@H]1O[C@H](CO)[C@@H](O)[C@H]1O` [inosine], the rate of uptake ([3]; 100 nM radiolabel) is given as 0.061 ± 0.002 pmol(10^7 cells)^−1s^−1, the “upregulation of uptake rate in NT3-KO relative to cas9” value [3] is given as 4 fold and the Ki (TvagENT3 [9]) is given as 3.3 ± 0.07 µM. The rate of uptake (L. mexicana cas9 cells [8]; 100 nM radiolabel) was 0.016 ± 0.002 pmol(10^7 cells)^−1s^−1 and the Ki (TvagENT3 [7]; TvagENT3 in SUPKO, inhibition of 50 nM [^3H]-adenosine uptake) was 2.7 ± 0.5 µM.

With `Nc1ncnc2[nH]cnc12` [adenine] the “rate of transport in NT3-KO as % of that in cas9” value ([3]; 100 nM radiolabel) was under 1%, the “uptake in NT3-KO lower than in cas9” value ([3]; 100 nM radiolabel, over 15 s) was over 100 fold and the rate of uptake ([3]; 100 nM radiolabel) was 0.000207 ± 0.000094 pmol(10^7 cells)^−1s^−1. For the same molecule, the rate of uptake (TcrNB2 [4]; NT3-KO expressing TcrNB2, 100 nM radiolabel) was 0.00036 ± 0.00001 pmol(10^7 cells)^−1s^−1, the Vmax (TcrNB2 [4]; TcrNB2 in NT3-KO, n = 3) was 0.26 ± 0.04 pmol(10^7 cells)^−1s^−1 and the rate of uptake (L. mexicana cas9 cells [8]; 100 nM radiolabel) was 0.0213 ± 0.0009 pmol(10^7 cells)^−1s^−1.

For `Nc1nc2c(ncn2[C@@H]2O[C@H](CO)[C@@H](O)[C@H]2O)c(=O)[nH]1` [guanosine], the “upregulation of uptake rate in NT3-KO relative to cas9” value [3] was 1.7 fold and 2.1 fold, the “rate of uptake lower in NT2-KO than in cas9” value (L. mexicana NT2-KO cells; 100 nM radiolabel) was 84.5% and the “inhibition of residual [^3H]-guanosine uptake in NT2-KO” value (L. mexicana NT2-KO cells) was “completely inhibited”. The rate of uptake (L. mexicana NT2-KO cells; NT2-KO cells, 100 nM radiolabel) was 0.0009 ± 0.00014 pmol(10^7 cells)^−1s^−1, the rate of uptake (L. mexicana cas9 cells [8]; [11]) was 0.010 ± 0.0006 pmol(10^7 cells)^−1s^−1 and 0.0058 ± 0.0003 pmol(10^7 cells)^−1s^−1 and the “uptake reduced in SUPKO compared to cas9” value [6] was 95.5%. For the same molecule, the rate of uptake [6, 11] was 0.00046 ± 0.00011 pmol(10^7 cells)^−1s^−1.

In the case of `CN(CC[C@H](N)CC(=O)N[C@H]1C=C[C@H](n2ccc(N)nc2=O)O[C@@H]1C(=O)O)C(=N)N` [blasticidin], the “sensitivity of cas9 cells” value (L. mexicana cas9 cells [2]) is reported as “confirmed”.

With `Cc1cn([C@H]2C[C@H](O)[C@@H](CO)O2)c(=O)[nH]c1=O` [thymidine] the “upregulation of uptake rate in NT3-KO relative to cas9” value [3] was 3.45 fold, the rate of uptake (L. mexicana cas9 cells [8]; 50 nM radiolabel) was 0.0018 ± 0.0001 pmol(10^7 cells)^−1s^−1 and the “uptake reduced in SUPKO compared to cas9” value [6] was 95.7 ± 1.8%. The rate of uptake ([6]; 50 nM radiolabel) was 8.7 × 10^−5 ± 1.2 × 10^−5 pmol(10^7 cells)^−1s^−1.

B1: TcrNB2 (Trypanosoma cruzi strain CL Brener) (protein)
chain: T1 sequence (Q4DHG0 1-440)
With B1 the Km ([10]; other: TcrNB2 in NT3-KO, 100 nM [^3H]-adenine, n = 3) was 14.2 ± 2.6 µM and the Km ([10]; other: one of three independent repeats, incubation time 120 s) was 14.99 µM.

Source: PMC9331716, “Nucleoside Transport and Nucleobase Uptake Null Mutants in Leishmania mexicana for the Routine Expression and Characterization of Purine and Pyrimidine Transporters” (International Journal of Molecular Sciences, 2022)
